Data from ChEMBL document CHEMBL1909046, “DrugMatrix in vitro pharmacology data”.

Key:
[1] = target: Mu-type opioid receptor (Homo sapiens, UniProt P35372); experiment: DRUGMATRIX: Opiate mu (OP3, MOP) radioligand binding (ligand: [3H] Diprenorphine); assay type: cell membranes, CHO-K1, Membrane; conditions: Not Active = under 50% inhibition at 10 µM
[2] = target: T1, Androgen receptor (Rattus norvegicus, UniProt P15207); note: in other assays of this panel Not Active means under 50% inhibition at 10 µM
T1 sequence (P15207 whole entry): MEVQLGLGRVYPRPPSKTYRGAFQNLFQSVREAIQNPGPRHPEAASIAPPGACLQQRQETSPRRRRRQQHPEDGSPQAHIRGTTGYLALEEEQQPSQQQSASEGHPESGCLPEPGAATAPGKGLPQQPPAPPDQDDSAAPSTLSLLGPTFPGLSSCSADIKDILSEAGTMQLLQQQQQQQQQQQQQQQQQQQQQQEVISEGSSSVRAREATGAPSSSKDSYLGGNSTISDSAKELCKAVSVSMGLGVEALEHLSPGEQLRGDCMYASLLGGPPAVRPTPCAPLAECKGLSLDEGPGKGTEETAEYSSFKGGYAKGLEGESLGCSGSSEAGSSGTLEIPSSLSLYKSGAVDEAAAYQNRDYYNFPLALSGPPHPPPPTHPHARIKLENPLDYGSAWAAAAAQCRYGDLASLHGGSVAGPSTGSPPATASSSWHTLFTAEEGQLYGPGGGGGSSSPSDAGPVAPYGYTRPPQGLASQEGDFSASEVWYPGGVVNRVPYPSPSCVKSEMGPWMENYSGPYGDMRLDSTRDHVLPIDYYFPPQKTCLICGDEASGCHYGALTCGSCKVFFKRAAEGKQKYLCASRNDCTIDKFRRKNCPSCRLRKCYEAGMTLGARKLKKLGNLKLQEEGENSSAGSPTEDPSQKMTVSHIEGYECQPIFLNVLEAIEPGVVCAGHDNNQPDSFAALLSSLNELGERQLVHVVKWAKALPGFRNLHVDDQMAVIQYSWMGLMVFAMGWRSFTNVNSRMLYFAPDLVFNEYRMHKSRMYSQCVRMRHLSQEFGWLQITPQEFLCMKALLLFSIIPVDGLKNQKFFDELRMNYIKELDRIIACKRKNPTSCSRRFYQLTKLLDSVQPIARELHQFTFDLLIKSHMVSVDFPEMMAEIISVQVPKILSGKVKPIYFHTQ

[3] = target: T2, 5-hydroxytryptamine receptor 2C (Homo sapiens, UniProt P28335); experiment: DRUGMATRIX: Serotonin (5-Hydroxytryptamine) 5-HT2C radioligand binding (ligand: [3H] Mesulergine); assay type: cell membranes, CHO-K1, Membrane; conditions: Not Active = under 50% inhibition at 10 µM; for Ki: read-out: Ki
T2 sequence (P28335 whole entry): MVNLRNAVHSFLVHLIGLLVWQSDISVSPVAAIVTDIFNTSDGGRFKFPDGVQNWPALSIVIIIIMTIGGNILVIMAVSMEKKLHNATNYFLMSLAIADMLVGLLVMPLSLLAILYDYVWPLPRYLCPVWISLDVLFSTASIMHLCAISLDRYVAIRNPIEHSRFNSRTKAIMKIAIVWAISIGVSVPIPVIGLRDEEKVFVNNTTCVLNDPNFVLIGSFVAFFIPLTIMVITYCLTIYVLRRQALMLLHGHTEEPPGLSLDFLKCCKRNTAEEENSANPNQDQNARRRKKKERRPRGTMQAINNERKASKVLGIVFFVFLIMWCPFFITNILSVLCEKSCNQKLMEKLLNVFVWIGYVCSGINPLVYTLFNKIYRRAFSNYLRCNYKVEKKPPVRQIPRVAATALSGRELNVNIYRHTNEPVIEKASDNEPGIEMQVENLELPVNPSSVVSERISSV

[4] = target: T3, Glucocorticoid receptor (Homo sapiens, UniProt P04150); experiment: biochemical; note: in other assays of this panel Not Active means under 50% inhibition at 10 µM
T3 sequence (P04150 whole entry): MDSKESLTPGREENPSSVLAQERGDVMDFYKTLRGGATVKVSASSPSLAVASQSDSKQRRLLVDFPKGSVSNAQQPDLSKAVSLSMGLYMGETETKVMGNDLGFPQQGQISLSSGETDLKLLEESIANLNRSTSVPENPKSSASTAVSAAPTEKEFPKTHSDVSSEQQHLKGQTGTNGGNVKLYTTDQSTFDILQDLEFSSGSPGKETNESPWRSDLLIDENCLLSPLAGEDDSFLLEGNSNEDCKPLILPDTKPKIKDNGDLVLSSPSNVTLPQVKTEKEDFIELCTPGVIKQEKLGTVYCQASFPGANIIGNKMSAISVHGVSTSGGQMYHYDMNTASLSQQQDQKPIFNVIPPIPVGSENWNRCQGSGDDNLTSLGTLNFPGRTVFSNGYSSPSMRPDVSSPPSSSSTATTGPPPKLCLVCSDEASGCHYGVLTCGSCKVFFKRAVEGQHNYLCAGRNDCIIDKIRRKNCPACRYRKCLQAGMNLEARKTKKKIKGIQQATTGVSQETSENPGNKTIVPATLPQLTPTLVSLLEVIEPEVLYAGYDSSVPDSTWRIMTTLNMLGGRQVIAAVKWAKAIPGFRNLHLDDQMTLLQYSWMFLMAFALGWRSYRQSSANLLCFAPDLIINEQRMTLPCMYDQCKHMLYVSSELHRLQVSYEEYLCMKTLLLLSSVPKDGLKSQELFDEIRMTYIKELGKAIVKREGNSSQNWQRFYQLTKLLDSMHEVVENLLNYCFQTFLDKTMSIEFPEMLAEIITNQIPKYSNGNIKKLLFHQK

[5] = target: Cytochrome P450 2C9 (Homo sapiens, UniProt P11712); note: in other assays of this panel Not Active means under 50% inhibition at 10 µM
Sequence of Cytochrome P450 2C9 (P11712 whole entry): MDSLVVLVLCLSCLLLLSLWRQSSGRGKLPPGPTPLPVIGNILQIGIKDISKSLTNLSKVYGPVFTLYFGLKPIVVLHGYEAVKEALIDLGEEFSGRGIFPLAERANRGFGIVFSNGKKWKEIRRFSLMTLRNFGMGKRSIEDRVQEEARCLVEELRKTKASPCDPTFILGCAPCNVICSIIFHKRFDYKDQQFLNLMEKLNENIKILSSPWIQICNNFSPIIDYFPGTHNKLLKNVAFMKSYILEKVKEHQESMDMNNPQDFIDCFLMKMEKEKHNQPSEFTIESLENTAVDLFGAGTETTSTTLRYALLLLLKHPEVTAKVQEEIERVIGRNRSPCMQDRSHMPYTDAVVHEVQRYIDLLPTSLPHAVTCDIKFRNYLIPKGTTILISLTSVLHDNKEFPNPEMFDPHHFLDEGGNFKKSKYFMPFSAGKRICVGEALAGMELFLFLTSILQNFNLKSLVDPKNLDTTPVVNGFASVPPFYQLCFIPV

[6] = target: Cytochrome P450 2C19 (Homo sapiens, UniProt P33261); note: in other assays of this panel Not Active means under 50% inhibition at 10 µM
Sequence of Cytochrome P450 2C19 (P33261 whole entry): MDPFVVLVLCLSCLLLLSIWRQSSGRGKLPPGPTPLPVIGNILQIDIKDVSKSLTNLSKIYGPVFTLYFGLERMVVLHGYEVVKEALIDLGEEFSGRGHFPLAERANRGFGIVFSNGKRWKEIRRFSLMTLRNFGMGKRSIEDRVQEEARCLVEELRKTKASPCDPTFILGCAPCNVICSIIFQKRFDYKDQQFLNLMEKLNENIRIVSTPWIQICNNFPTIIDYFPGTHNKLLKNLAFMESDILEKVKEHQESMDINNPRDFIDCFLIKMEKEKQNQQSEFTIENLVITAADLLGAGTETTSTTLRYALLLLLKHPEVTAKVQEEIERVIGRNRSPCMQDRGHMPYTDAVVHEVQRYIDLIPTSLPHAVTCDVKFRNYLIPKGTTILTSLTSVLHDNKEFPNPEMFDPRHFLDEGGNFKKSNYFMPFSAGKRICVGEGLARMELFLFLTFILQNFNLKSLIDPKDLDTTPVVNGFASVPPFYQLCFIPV

[7] = target: Cytochrome P450 2D6 (Homo sapiens, UniProt P10635); note: in other assays of this panel Not Active means under 50% inhibition at 10 µM
Sequence of Cytochrome P450 2D6 (P10635 whole entry): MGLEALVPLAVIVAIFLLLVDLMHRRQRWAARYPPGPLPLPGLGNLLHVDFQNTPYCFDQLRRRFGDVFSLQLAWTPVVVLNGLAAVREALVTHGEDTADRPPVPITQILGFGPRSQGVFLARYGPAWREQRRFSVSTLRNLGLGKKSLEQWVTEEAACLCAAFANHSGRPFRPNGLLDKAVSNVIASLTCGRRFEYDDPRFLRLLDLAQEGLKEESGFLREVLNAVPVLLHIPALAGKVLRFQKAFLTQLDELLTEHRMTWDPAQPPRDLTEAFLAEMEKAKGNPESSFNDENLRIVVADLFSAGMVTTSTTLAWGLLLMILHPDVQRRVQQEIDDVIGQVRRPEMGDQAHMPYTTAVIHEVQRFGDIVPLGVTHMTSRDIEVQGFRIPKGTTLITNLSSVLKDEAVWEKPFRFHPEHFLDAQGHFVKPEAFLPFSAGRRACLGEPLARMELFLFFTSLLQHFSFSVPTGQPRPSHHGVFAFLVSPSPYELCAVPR

[8] = target: T1, Androgen receptor; remark: listed apart in the source
[9] = target: Cytochrome P450 3A4 (Homo sapiens, UniProt P08684); note: in other assays of this panel Not Active means under 50% inhibition at 10 µM
Sequence of Cytochrome P450 3A4 (P08684 whole entry): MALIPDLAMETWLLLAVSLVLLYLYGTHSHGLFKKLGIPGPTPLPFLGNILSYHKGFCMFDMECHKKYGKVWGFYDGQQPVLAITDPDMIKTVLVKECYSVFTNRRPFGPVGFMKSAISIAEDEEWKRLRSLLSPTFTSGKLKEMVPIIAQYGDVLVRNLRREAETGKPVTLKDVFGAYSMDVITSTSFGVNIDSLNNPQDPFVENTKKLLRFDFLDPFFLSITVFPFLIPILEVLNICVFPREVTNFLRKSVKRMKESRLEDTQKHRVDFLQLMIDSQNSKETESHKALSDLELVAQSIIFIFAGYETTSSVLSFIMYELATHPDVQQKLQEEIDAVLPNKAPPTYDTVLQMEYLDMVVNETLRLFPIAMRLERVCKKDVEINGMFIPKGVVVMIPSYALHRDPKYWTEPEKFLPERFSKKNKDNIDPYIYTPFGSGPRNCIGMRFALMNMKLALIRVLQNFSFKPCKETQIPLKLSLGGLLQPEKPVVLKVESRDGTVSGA

[10] = target: Cytochrome P450 2E1 (Homo sapiens, UniProt P05181); note: in other assays of this panel Not Active means under 50% inhibition at 10 µM
Sequence of Cytochrome P450 2E1 (P05181 whole entry): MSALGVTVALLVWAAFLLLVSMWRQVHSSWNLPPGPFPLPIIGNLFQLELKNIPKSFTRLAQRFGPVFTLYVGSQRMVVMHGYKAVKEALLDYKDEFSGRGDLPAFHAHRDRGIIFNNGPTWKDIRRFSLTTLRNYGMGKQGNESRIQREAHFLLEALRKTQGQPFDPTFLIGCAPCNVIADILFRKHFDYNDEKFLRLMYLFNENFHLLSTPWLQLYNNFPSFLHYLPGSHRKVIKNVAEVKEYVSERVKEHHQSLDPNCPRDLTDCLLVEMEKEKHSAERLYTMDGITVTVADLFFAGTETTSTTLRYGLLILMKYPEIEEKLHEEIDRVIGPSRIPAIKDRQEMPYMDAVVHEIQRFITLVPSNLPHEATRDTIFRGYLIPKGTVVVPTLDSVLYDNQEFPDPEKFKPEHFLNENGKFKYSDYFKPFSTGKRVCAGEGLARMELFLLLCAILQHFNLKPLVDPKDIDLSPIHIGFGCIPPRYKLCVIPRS

Sequence of Mu-type opioid receptor (P35372 whole entry): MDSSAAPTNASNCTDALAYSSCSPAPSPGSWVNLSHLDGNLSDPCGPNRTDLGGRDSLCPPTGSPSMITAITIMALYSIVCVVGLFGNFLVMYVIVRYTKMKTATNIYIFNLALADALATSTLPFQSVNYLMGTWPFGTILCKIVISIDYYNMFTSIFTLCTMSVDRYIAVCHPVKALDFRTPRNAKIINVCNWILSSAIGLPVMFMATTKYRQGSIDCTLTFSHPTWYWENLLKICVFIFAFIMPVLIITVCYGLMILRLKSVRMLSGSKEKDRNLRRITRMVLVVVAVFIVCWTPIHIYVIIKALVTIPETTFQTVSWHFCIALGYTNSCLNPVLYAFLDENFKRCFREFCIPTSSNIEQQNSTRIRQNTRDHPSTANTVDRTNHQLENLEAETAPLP

Row | Compound | IC50 ([3]; cho-k1) | IC50 ([1]; cho-k1) | IC50 [5] [µM] | IC50 [6] [µM] | IC50 [7] [µM] | IC50 [8] | IC50 ([3]; read-out: IC50) [µM] | Ki [3] [µM] | also measured
1 | Cc1c(O)cccc1C(=O)N[C@@H](CSc1ccccc1)[C@H](O)CN1C[C@H]2CCCC[C@H]2C[C@H]1C(=O)NC(C)(C)C | Not Active | – | – | – | – | – | – | – | Ki [1]: 5.86 µM; IC50 ([1]; read-out: IC50): 14.4 µM; IC50 [2]: 36.4 µM; Ki [2]: 24.3 µM
2 | C#C[C@]1(O)CC[C@H]2[C@@H]3CCC4=CC(=O)CC[C@]4(C)[C@H]3CC[C@@]21C [ETHISTERONE] | Not Active | Not Active | – | – | – | – | – | – | IC50 [4]: 0.209 µM; Ki [4]: 0.095 µM
3 | NNCCc1ccccc1 [PHENELZINE] | Not Active | Not Active | 4 | 0.8 | 1 | – | – | – | –
4 | O=C(c1ccccc1F)N1CCC(Cc2ccccc2)CC1 | Not Active | Not Active | 2 | 0.5 | – | Not Active | – | – | –
5 | CC[C@H]1[C@@H]2C[C@H]3[C@@H]4N(C)c5ccccc5[C@]45C[C@@H]([C@@H]2[C@H]5O)N3[C@@H]1O [AJMALINE] | Not Active | Not Active | – | – | 1 | – | – | – | –
6 | CC(C)C[C@H]1C(=O)N2CCC[C@H]2[C@]2(O)O[C@](NC(=O)[C@@H]3C=C4c5cccc6[nH]cc(c56)C[C@H]4N(C)C3)(C(C)C)C(=O)N12 [ERGOCRYPTINE] | – | – | 6 | – | – | Not Active | 0.147 | 0.077 | Ki [1]: 0.985 µM; IC50 ([1]; read-out: IC50): 2.43 µM; IC50 [9]: 0.6 µM
7 | COc1ccc2c(c1OC)C(=O)O[C@@H]2[C@H]1c2c(cc3c(c2OC)OCO3)CCN1C [NOSCAPINE] | Not Active | Not Active | 8.18 | 0.4 | – | – | – | – | –
8 | ClC(Cl)(Cl)Cl [CARBON TETRACHLORIDE] | Not Active | Not Active | – | – | – | – | – | – | IC50 [10]: 11 µM
9 | CC(O)COC[C@H]1O[C@@H]2O[C@H]3[C@H](O)[C@@H](O)[C@@H](O[C@H]4[C@H](O)[C@@H](O)[C@@H](O[C@H]5[C@H](O)[C@@H](O)[C@@H](O[C@H]6[C@H](O)[C@@H](O)[C@@H](O[C@H]7[C@H](O)[C@@H](O)[C@@H](O[C@H]8[C@H](O)[C@@H](O)[C@@H](O[C@H]1[C@H](O)[C@H]2O)O[C@@H]8COCC(C)O)O[C@@H]7COCC(C)O)O[C@@H]6COCC(C)O)O[C@@H]5COCC(C)O)O[C@@H]4COCC(C)O)O[C@@H]3COCC(C)O (stereo partly drawn) [2-HYDROXYPROPYL-BETA-CYCLODEXTRIN] | – | Not Active | – | – | – | – | 1.59 | 0.833 | IC50 [2]: 2.16 µM; Ki [2]: 1.44 µM
10 | CN1CCN(C(c2ccccc2)c2ccccc2)CC1 [CYCLIZINE] | – | Not Active | – | – | 6.22 | Not Active | 1.02 | 0.535 | –
